For assay [1], the target named is LYN B (Homo sapiens, UniProt P07948). Kind of assay: Z'-LYTE SelectScreen biochemical kinase assay LYN B. From the text: (§1) Thermo Fisher Scientific SelectScreen™ Biochemical Kinase Profiling Service Z′-LYTE™ Screening Protocol and Assay Conditions Assay Theory
(§2) The […] biochemical assay employs a fluorescence-based, coupled-enzyme format and is based on the differential sensitivity of phosphorylated and non-phosphorylated peptides to proteolytic cleavage. The peptide substrate is labeled with two fluorophores—one at each end—that make up a FRET pair. In the primary reaction, the kinase transfers the gamma-phosphate of ATP to a single tyrosine, serine or threonine residue in a synthetic FRET-peptide. In the secondary reaction, a site-specific protease recognizes and cleaves non-phosphorylated FRET-peptides. Phosphorylation of FRET-peptides suppresses cleavage by the Development Reagent. Cleavage disrupts FRET between the donor (i.e., coumarin) and acceptor (i.e., fluorescein) fluorophores on the FRET-peptide, whereas uncleaved, phosphorylated FRET-peptides maintain FRET. A ratiometric method, which calculates the ratio (Emission Ratio=Coumarin emission (445 nm)/Fluorescein emission (520 nm)) of donor emission to acceptor emission after excitation of the donor fluorophore at 400 nm, is used to quantitate reaction progress, as shown in the equation below. A significant benefit of this ratiometric method for quantitating reaction progress is the elimination of well-to-well variations in FRET-peptide concentration and signal intensities. As a result, the assay yields very high Z′-factor values (>0.7) at a low percent phosphorylation. Both cleaved and uncleaved FRET-peptides contribute to the fluorescence signals and therefore to the Emission Ratio. The extent of phosphorylation of the FRET-peptide can be calculated from the Emission Ratio. The Emission Ratio will remain low if the FRET-peptide is phosphorylated (i.e., no kinase inhibition) and will be high if the FRET-peptide is non-phosphorylated (i.e., kinase inhibition).
(§3) The Test Compounds are screened in 1% DMSO (final) in the well. For 10 point titrations, 3-fold serial dilutions are conducted from the starting concentration of the customer's choosing.
(§4) All Peptide/Kinase Mixtures are diluted to a 2× working concentration in the appropriate Kinase Buffer (see section Kinase Specific Assay Conditions for a complete description).
(§5) All ATP Solutions are diluted to a 4× working concentration in Kinase Buffer (50 mM HEPES pH 7.5, 0.01% BRIJ-35, 10 mM MgCl2, 1 mM EGTA). ATP Km apparent is previously determined using a Z″-LYTE assay.
(§6) The Development Reagent is diluted in Development Buffer (see section Kinase-Specific Assay Conditions—Direct and Cascade for a complete description).
(§7) Bar-coded Corning, low volume NBS, black 384-well plate (Corning Cat. #4514) • 1. 100 nL—100× Test Compound in 100% DMSO • 2. 2.4 μL—Kinase buffer • 3. 5 μL—2× Peptide/Kinase Mixture • 4. 2.5 μL—4×ATP Solution • 5. 30—second plate shake • 6. 60—minute Kinase Reaction incubation at room temperature • 7. 5 μL—Development Reagent Solution • 8. 30—second plate shake • 9. 60—minute Development Reaction incubation at room temperature • 10. Read on fluorescence plate reader and analyze the data Z′-LYTE Assay Controls
(§8) SelectScreen Kinase Profiling Service uses XLfit from IDBS. The dose response curve is curve fit to model number 205 (sigmoidal dose-response model).
The 2×LYN B/Tyr 02 mixture is prepared in 50 mM HEPES pH 7.5, 0.01% BRIJ-35, 10 mM MgCl2, 1 mM EGTA. The final 10 μL Kinase Reaction consists of 0.85-14.8 ng LYN B and 2 μM Tyr 02 in 50 mM HEPES pH 7.5, 0.01% BRIJ-35, 10 mM MgCl2, 1 mM EGTA. After the 1 hour Kinase Reaction incubation, 5 μL of a 1:128 dilution of Development Reagent A is added.

Assay [2] has as its target RPS6KB1 (p70S6K) (Homo sapiens, UniProt P23443). Kind of assay: Z'-LYTE SelectScreen biochemical kinase assay RPS6KB1 (p70S6K).
Excerpt: as §1, §2, §3, §4, §5, §6, §7, §8
The 2×RPS6 KB1 (p70S6K)/Ser/Thr 07 mixture is prepared in 50 mM HEPES pH 7.5, 0.01% BRIJ-35, 10 mM MgCl2, 1 mM EGTA. The final 10 μL Kinase Reaction consists of 2.87-17.7 ng RPS6 KB1 (p70S6K) and 2 μM Ser/Thr 07 in 50 mM HEPES pH 7.5, 0.01% BRIJ-35, 10 mM MgCl2, 1 mM EGTA. After the 1 hour Kinase Reaction incubation, 5 μL of a 1:45000 dilution of Development Reagent A is added.

The target of assay [3] is PDGFRA (PDGFR alpha) (Homo sapiens, UniProt P16234). Briefly: Z'-LYTE SelectScreen biochemical kinase assay PDGFRA (PDGFR alpha).
Chain of PDGFRA (PDGFR alpha) (P16234 24-1089): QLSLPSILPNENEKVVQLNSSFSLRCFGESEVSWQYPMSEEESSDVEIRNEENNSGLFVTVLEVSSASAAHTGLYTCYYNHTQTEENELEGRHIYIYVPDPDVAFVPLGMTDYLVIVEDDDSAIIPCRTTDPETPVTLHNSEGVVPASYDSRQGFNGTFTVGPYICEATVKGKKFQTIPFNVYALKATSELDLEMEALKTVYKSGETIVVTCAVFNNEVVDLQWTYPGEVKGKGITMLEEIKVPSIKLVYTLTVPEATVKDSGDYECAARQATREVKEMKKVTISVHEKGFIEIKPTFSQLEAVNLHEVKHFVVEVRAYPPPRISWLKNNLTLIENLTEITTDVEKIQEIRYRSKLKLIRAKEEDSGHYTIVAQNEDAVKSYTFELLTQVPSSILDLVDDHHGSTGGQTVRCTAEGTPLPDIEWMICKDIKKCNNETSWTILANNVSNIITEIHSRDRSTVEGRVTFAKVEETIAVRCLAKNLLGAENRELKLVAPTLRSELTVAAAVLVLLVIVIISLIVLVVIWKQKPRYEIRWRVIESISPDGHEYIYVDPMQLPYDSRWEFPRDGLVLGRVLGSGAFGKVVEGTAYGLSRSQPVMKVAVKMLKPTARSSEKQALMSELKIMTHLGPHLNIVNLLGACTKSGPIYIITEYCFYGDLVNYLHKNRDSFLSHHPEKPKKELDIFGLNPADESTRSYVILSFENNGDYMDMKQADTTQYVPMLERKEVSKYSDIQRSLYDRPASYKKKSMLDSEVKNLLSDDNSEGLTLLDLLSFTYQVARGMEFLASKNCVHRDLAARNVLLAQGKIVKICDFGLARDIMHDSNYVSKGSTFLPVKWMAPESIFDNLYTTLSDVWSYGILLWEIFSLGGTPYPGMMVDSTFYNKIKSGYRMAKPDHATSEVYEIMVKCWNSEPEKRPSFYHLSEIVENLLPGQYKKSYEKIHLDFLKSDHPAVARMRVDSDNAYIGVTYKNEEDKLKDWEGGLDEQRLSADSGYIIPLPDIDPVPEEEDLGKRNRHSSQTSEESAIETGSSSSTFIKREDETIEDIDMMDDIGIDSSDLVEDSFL
Excerpt: as §1, §2, §3, §4, §5, §6, §7, §8
The 2×PDGFRA (PDGFR alpha)/Tyr 04 mixture is prepared in 50 mM HEPES pH 7.5, 0.01% BRIJ-35, 10 mM MgCl2, 4 mM MnCl2, 1 mM EGTA, 2 mM DTT. The final 10 μL Kinase Reaction consists of 1.54-22.6 ng PDGFRA (PDGFR alpha) and 2 μM Tyr 04 in 50 mM HEPES pH 7.5, 0.01% BRIJ-35, 10 mM MgCl2, 2 mM MnCl2, 1 mM EGTA, 1 mM DTT. After the 1 hour Kinase Reaction incubation, 5 μL of a 1:64 dilution of Development Reagent B is added.

Assay [4] concerns the target FGFR2 (Homo sapiens, UniProt P21802). Kind of assay: Z'-LYTE SelectScreen biochemical kinase assay FGFR2.
Excerpt: as §1, §2, §3, §4, §5, §6, §7, §8
The 2×FGFR2/Tyr 04 mixture is prepared in 50 mM HEPES pH 7.5, 0.01% BRIJ-35, 10 mM MgCl2, 4 mM MnCl2, 1 mM EGTA, 2 mM DTT. The final 10 μL Kinase Reaction consists of 0.19-1.99 ng FGFR2 and 2 μM Tyr 04 in 50 mM HEPES pH 7.5, 0.01% BRIJ-35, 10 mM MgCl2, 2 mM MnCl2, 1 mM EGTA, 1 mM DTT. After the 1 hour Kinase Reaction incubation, 5 μL of a 1:64 dilution of Development Reagent B is added.

The mark [5] stands for this setting: 10 μmolar compound concentration, ATP at Km app, read-out: LYN B inhibition.
Where [6] appears, read: read-out: % Inhibition mean LYN B.
Where [7] appears, read: 10 μmolar compound concentration, ATP at Km app, read-out: RPS6KB1 (p70S6K) inhibition.
The mark [8] stands for this setting: read-out: % Inhibition mean RPS6KB1 (p70S6K).
The mark [9] stands for this setting: 10 μmolar compound concentration, ATP at Km app, read-out: PDGFRA (PDGFR alpha) inhibition.
[10] abbreviates: read-out: % Inhibition mean PDGFRA (PDGFR alpha).
Where [11] appears, read: 10 μmolar compound concentration, ATP at Km app, read-out: FGFR2 inhibition.
Where [12] appears, read: read-out: % Inhibition mean FGFR2.

Read-outs that look alike come from different tables or passages of the source. A value given as a limit tells only on which side of the number the result lay.

Chain of RPS6KB1 (p70S6K) (P23443 whole entry): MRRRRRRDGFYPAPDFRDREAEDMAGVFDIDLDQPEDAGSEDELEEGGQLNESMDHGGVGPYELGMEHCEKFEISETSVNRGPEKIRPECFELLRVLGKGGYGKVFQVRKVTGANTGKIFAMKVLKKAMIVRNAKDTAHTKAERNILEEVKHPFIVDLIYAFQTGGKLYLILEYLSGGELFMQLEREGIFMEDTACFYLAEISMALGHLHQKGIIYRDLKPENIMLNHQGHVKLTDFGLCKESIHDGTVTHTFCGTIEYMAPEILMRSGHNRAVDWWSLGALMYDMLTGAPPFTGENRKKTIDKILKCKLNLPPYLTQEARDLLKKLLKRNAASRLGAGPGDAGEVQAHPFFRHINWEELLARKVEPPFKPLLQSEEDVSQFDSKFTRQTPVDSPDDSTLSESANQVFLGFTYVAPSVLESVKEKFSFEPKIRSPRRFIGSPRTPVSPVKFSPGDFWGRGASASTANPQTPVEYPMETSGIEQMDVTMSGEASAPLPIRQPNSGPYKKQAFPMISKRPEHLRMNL
Chain of FGFR2 (P21802 22-821): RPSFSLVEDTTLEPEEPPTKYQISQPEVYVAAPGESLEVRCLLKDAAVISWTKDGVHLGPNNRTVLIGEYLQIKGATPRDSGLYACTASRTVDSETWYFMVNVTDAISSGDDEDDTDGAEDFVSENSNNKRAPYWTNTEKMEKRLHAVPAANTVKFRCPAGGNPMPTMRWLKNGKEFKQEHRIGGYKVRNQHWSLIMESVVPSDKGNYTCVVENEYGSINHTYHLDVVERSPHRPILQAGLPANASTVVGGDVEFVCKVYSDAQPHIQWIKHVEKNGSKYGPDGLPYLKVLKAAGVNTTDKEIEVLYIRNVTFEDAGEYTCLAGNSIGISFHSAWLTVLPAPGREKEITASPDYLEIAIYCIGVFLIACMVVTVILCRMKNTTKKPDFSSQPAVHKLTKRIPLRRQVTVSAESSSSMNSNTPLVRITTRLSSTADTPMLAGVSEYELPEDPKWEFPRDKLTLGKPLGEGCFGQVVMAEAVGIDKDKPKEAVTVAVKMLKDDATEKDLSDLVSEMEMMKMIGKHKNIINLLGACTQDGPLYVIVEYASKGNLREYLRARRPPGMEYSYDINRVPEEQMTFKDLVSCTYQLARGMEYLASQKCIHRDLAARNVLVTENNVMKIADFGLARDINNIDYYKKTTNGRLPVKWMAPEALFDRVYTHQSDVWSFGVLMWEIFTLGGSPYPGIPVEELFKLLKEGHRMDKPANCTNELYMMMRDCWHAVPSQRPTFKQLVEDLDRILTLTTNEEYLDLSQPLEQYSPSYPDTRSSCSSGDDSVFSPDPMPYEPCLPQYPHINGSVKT
Chain of LYN B (P07948 1-491 isoform P07948-2): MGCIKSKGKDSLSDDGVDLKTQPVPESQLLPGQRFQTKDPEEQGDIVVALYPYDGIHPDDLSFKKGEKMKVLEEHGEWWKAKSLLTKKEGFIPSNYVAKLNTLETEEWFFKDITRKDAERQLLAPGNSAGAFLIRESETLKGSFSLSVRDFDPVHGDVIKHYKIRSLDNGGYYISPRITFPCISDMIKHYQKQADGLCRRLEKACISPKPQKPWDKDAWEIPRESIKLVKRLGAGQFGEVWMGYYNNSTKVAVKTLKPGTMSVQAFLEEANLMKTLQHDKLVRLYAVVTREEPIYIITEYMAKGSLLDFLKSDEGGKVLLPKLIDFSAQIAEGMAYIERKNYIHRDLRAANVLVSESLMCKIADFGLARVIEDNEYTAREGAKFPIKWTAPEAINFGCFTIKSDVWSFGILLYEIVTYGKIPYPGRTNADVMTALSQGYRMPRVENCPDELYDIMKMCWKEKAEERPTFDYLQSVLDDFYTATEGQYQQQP

As usually defined, the inhibition is the percentage by which the read-out fell short of the control. Turning to `CCn1ncc2c1CCC(Nc1nc3c(-c4ccc(F)cc4C)cccn3n1)C2` (stereo not drawn) [Example 42, (1-Ethyl-4,5,6,7-tetrahydro-1H-indazol-5-yl)-[8-(4-fluoro-2-methyl-phenyl)-[1,2,4]triazolo[1,5-a]pyridine-2-yl]-amine], the inhibition at 10 µM was below 40% in assay [1] (setting [5]); 19% in assay [1] (setting [6]); below 40% in assay [2] (setting [7]); 6% in assay [2] (setting [8]); below 40% in assay [3] (setting [9]); 12% in assay [3] (setting [10]). Moreover, the inhibition at 10 µM in assay [4] (setting [11]) was below 40%; in assay [4] (setting [12]) it was 26%.

For `CCn1ncc2c1CCC(Nc1nc3c(-c4cccc(Cl)c4)cccn3n1)C2` (stereo not drawn) [Example 59, [8-(3-Chloro-phenyl)-[1,2,4]triazolo[1,5-a]pyridine-2-yl]-(1-ethyl-4,5,6,7-tetrahydro-1H-indazol-5-yl)-amine], the inhibition at 10 µM in assay [1] (setting [5]) is below 40%; in assay [1] (setting [6]) it was 22%; in assay [2] (setting [7]), below 40%; in assay [2] (setting [8]), 6%; in assay [3] (setting [9]) it was below 40%; in assay [3] (setting [10]), 5%. In addition, the inhibition at 10 µM was below 40% in assay [4] (setting [11]) and 11% in assay [4] (setting [12]).

Turning to `CCn1ncc2c1CCC(Nc1nc3c(-c4ccccc4C)cccn3n1)C2` (stereo not drawn) [Example 56, (1-Ethyl-4,5,6,7-tetrahydro-1H-indazol-5-yl)-[8-(2-methyl-phenyl)-[1,2,4]triazolo[1,5-a]pyridine-2-yl]-amine], the inhibition at 10 µM in assay [1] (setting [5]) was below 40%; in assay [1] (setting [6]) it was 19%; in assay [2] (setting [7]), below 40%; in assay [2] (setting [8]), 1%; in assay [3] (setting [9]), below 40%; in assay [3] (setting [10]), 21%. The inhibition at 10 µM in assay [4] (setting [11]) was below 40%; in assay [4] (setting [12]) it was 19%.

Turning to `CCn1ncc2c1CCC(Nc1nc3c(-c4cccnc4)cccn3n1)C2` (stereo not drawn) [Example 63, (1-Ethyl-4,5,6,7-tetrahydro-1H-indazol-5-yl)-(8-pyridin-3-yl-[1,2,4]triazolo[1,5-a]pyridine-2-yl)-amine], the inhibition at 10 µM in assay [1] (setting [5]) is below 40%; in assay [1] (setting [6]), 13%; in assay [2] (setting [7]) it was below 40%; in assay [2] (setting [8]), 3%; in assay [3] (setting [9]) it was below 40%; in assay [3] (setting [10]), 20%. Besides, the inhibition at 10 µM in assay [4] (setting [11]) was below 40%; in assay [4] (setting [12]), 16%.

With `Cc1cc(F)ccc1-c1cccn2nc(NC3CCc4c(cnn4C(C)C)C3)nc12` (stereo not drawn) [Example 44, [8-(4-fluoro-2-methyl-phenyl)-[1,2,4]triazolo[1,5-a]pyridine-2-yl]-(1-isopropyl-4,5,6,7-tetrahydro-1H-indazol-5-yl)-amine], the inhibition at 10 µM in assay [1] (setting [5]) was below 40%; in assay [1] (setting [6]), 21%; in assay [2] (setting [7]), below 40%; in assay [2] (setting [8]), 12%; in assay [3] (setting [9]), below 40%; in assay [3] (setting [10]), 5%. For the same molecule, the inhibition at 10 µM was below 40% in assay [4] (setting [11]) and 22% in assay [4] (setting [12]).

Consider `CCn1nnc2c1CCC(Nc1nc3c(-c4ccc(F)cc4C)cccn3n1)C2` (stereo not drawn) [Example 51, (1-Ethyl-4,5,6,7-tetrahydro-1H-benzotriazol-5-yl)-[8-(4-fluoro-2-methyl-phenyl)-[1,2,4]triazolo[1,5-a]pyridine-2-yl]-amine], for which the inhibition at 10 µM in assay [1] (setting [5]) is below 40%; in assay [1] (setting [6]) it was 7%; in assay [2] (setting [7]), below 40%; in assay [2] (setting [8]), 1%; in assay [3] (setting [9]), below 40%; in assay [3] (setting [10]) it was 14%. The inhibition at 10 µM in assay [4] (setting [11]) was below 40%; in assay [4] (setting [12]), 28%.

The record behind these values is patent US11339161B2, “Triazolo pyridines as modulators of gamma-secretase” (Boehringer Ingelheim International GmbH, priority 2017, dated 2022).
